Tests used:
Langerhans cells (LC) = experiment: LC entrapment after subcutaneous rod implantation and DNFB painting; assay type: in vivo, BALB/c mice; details: 24 hours after DNFB painting over BSA rod implantation sites
Procedure: After 24 hr pre-incubation in PBS at 37° C., a MIP-3β or BSA rod was cut into 4 short pieces (2.5 mm length) and implanted subcutaneously into a mouse with 200 μl of PBS using a 20G1/2 needle.
In an attempt to induce LC maturation and elevate MIP-3β responsiveness, DNFB was applied over the implantation sites.

Spleen DC = experiment: In vitro Transwell migration of spleen DC toward chemokine; assay type: cell-based, BALB/c mice; details: for % specific migration: spleen cell migration, transwell, 2 hr incubation at 37° C.
Procedure: (§1) Several chemokines were tested in an in vitro transwell system for their ability to promote migration of mature DC, including MIP-1α, MIP-1γ, MCP-3, RANTES and MIP-3β. In vitro cell migration assays were performed by using 6.5 mm Transwell units (Costar, Cambridge, Mass.). Spleen DC or T cells prepared from BALB/c mice were placed in the upper chamber of the transwell system and chemokine (e.g., MIP-3β) was added to the lower chamber of the transwell system. After 2 hr incubation at 37° C., the migratory cells were harvested from the lower chambers, and the % DC (or T cell) migration was calculated by dividing the output CD11c^+ (or CD3^+) cells by the input CD11c^+ (or CD3^+) cells.

T cell migration = experiment: Biological activity of MIP-3β released from EVA rods (T cell chemotaxis assay); assay type: cell-based; details: MIP-3β liberated from the EVA polymer, Day 3 samples tested at 33 or 100% (vol/vol)
Procedure: To determine whether the released MIP-3β was biologically active, the same samples as used above were tested at 33 or 100% (vol/vol) for their biological activities to promote T cell migration (FIG. 1e). DNFB-induced LC emigration was examined by counting the numbers of IA^+ and DEC205^+ epidermal cells after whole mount epidermal staining. See Mummert et al., 2000, J. Exp. Med. 192:769-779.

T cells = experiment: In vitro Transwell migration of T cells toward chemokine; assay type: cell-based, BALB/c mice; details: relative to mature DCs (FIG. 1a)
Procedure: as §1

| Molecule | % specific migration (Spleen DC) | other results |
| --- | --- | --- |
| O=[N+]([O-])c1ccc(F)c([N+](=O)[O-])c1 [DNFB, dinitroflourobenzene] | – | reduction in surface LC densities (Langerhans cells (LC)): 25-30% |
| MIP-3β | 13.2% | concentrations promoting migration of mature DCs (Spleen DC; chemokine in lower chamber (FIG. 1a)): 3 to 10 ng/mL; potency in promoting migration of CD11c-positive splenic dendritic cell fractions (Spleen DC; compared among the chemokines tested): most potent; biological activity in the chemotaxis assay (T cell migration): significant biological activities; concentrations required for recruiting T cells (T cells): much higher concentrations were required |
| monocyte chemotactic protein-3 [MCP-3] | 18.2% | – |
| MIP-1α (protein, UniProt P10147 24-92, looked up, chemokine tested for promoting migration of mature DC) C-C motif chemokine 3: SLAADTPTACCFSYTSRQIPQNFIADYFETSSQCSKPGVIFLTKRSRQVCADPSEEWVQKYVSDLELSA | 8.2% | – |
| MIP-1γ (protein, UniProt P51670 22-122, looked up, chemokine tested for promoting migration of mature DC) C-C motif chemokine 9: QITHATETKEVQSSLKAQQGLEIEMFHMGFQDSSDCCLSYNSRIQCSRFIGYFPTSGGCTRPGIIFISKRGFQVCANPSDRRVQRCIERLEQNSQPRTYKQ | 5.4% | – |
| RANTES (protein, UniProt P13501 24-91, looked up, chemokine tested for promoting migration of mature DC) C-C motif chemokine 5: SPYSSDTTPCCFAYIARPLPRAHIKEYFYTSGKCSNPAVVFVTRKNRQVCANPEKKWVREYINSLEMS | 9.1% | – |

— patent US20020131953A1, “In situ langerhans cell vaccine” (UT SOUTHWESTERN MEDICAL CENTER, priority 2001, published 2002)
